Experimental data reported in ChEMBL document CHEMBL5053557, “Discovery of Novel Dual-Target Inhibitor of Bromodomain-Containing Protein 4/Casein Kinase 2 Inducing Apoptosis and Autophagy-Associated Cell Death for Triple-Negative Breast Cancer Therapy” (J Med Chem, 2021).
Calls of active or inactive are those of the source. The rule behind the calls is not given here.

Key:
MDA-MB-468 = assay: Antiproliferative activity against human MDA-MB-468 cells incubated for 24 hrs by MTT assay; format: functional, cell-based; details: MDA-MB-468, 24 h
MDA-MB-231 [1] = assay: cells; details: Homo sapiens, MDA-MB-231, 24 h
MDA-MB-231 [2] = assay: Antitumor activity against human MDA-MB-231 cells xenografted in po dosed nude BALB/c mouse assessed as tumor growth inhibition at 1:1 JQ-1 : compound ratio administered once daily for 19 days and measured every 3 days; format: functional, organism-based; details: dose 50.0 mg/kg, time 19.0 day
Mus musculus = assay: Toxicity in nude BALB/c mouse xenografted with human MDA-MB-231 cells assessed as change in body weight at 50 mg/kg, po containing 1:1 compound : JQ-1 ratio administered once daily for 19 days and measured every 3 days; format: organism-based; details: in vivo, 456 h, time 19 day

Compound	IC50 (MDA-MB-468) [µM]	IC50 (MDA-MB-231 [1]) [µM]	Activity (MDA-MB-231 [2])	Activity (Mus musculus)
COc1cc(OC)c2c(=O)[nH]c(-c3ccc(OCC(=O)Nc4ccccc4N4CCN(C)CC4)cc3)nc2c1	11.5	17.3	–	–
COC(=O)COc1ccc(-c2nc3cc(OC)cc(OC)c3c(=O)[nH]2)cc1	13.8	22	–	–
COc1cc(OC)c2c(=O)[nH]c(-c3cc(C)c(OCC(=O)Nc4ccc(N5CCCCC5)cc4)c(C)c3)nc2c1	9.43	13.4	–	–
COc1cc(OC)c2c(=O)[nH]c(-c3ccc(OCC(=O)Nc4ccc(N5CCN(C)CC5)cc4)cc3)nc2c1	8.8	6.46	–	–
COc1cc(OC)c2c(=O)[nH]c(-c3cc(C)c(OCC(=O)Nc4ccc(N5CCN(C)CC5)cc4)c(C)c3)nc2c1	12.6	10.8	–	–
COc1cc(OC)c2c(=O)[nH]c(-c3ccc(OCC(=O)Nc4ccc(N5CCOCC5)c(F)c4)cc3)nc2c1	8.58	7.09	–	–
COc1cc(OC)c2c(=O)[nH]c(-c3ccccc3OCC(=O)O)nc2c1	18.6	36.7	–	–
COc1cc(OC)c2c(=O)[nH]c(-c3cc(C)c(OCC(=O)Nc4ccc(N5CCN(C)CC5)c(Cl)c4)c(C)c3)nc2c1	4.58	3.49	–	–
COc1cc(OC)c2c(=O)[nH]c(-c3cc(Br)c(OCC(=O)NC4CCN(C)CC4)c(Br)c3)nc2c1	14.8	16.9	–	–
COc1cc(OC)c2c(=O)[nH]c(-c3ccc(C(=O)O)cc3)nc2c1	8.33	21.1	–	–
COc1cc(OC)c2c(=O)[nH]c(-c3ccc(OCC(=O)Nc4cc(OC)c(OC)c(OC)c4)cc3)nc2c1	15	23.4	–	–
COc1cc(OC)c2c(=O)[nH]c(-c3ccc(C)cc3)nc2c1	38.4	45.6	–	–
COc1cc(OC)c2c(=O)[nH]c(-c3ccc(OCC(=O)Nc4ccc(N5CCCCC5)cc4)cc3)nc2c1	11.6	10.3	–	–
COc1ccc2oc(-c3ccccc3)cc(=S)c2c1	> 50	> 50	–	–
CC(=O)Nc1ccc(-c2nc3ccccc3c(=O)[nH]2)cc1	> 50	> 50	–	–
COc1cc(OC)c2c(=O)[nH]c(-c3cc(C)c(Br)c(C)c3)nc2c1	29.6	25.2	–	–
COc1ccc2oc(-c3cc(C)cc(C)c3)cc(=O)c2c1	> 50	45.7	–	–
COc1cc(OC)c2c(=O)[nH]c(-c3cccc(OCC(=O)O)c3)nc2c1	22.7	25.6	–	–
COc1cc(OC)c2c(=O)cc(-c3cc(C)cc(C)c3)oc2c1	39.6	47.8	–	–
CN1CCN(c2ccc(NC(=O)COc3ccc(-c4nc5cc(F)ccc5c(=O)[nH]4)cc3)cc2Cl)CC1	7.51	6.94	–	–
COc1cc(OC)c2c(=O)[nH]c(-c3cc(C)c(OCC(=O)Nc4cccc(N5CCOCC5)c4)c(C)c3)nc2c1	13.4	11.3	–	–
COc1cc(OC)c2c(=O)[nH]c(-c3ccc(OCC(=O)Nc4ccc(N5CCN(C)CC5)c(F)c4)cc3)nc2c1	7.55	6.3	–	–

Compound	IC50 (MDA-MB-468) [µM]	IC50 (MDA-MB-231 [1]) [µM]	Activity (MDA-MB-231 [2])	Activity (Mus musculus)
Cc1ccc(-c2nc3ccccc3c(=O)[nH]2)cc1	> 50	> 50	–	–
COc1cc(OC)c2c(=O)[nH]c(-c3cc(C)c(OCC(=O)NC4CCN(C)CC4)c(C)c3)nc2c1	15.6	17.2	–	–
COc1cc(OC)c2c(=O)[nH]c(-c3ccc(OCC(=O)Nc4cccc(N5CCOCC5)c4)cc3)nc2c1	17.8	15.3	–	–
COc1cc(OC)c2c(=O)[nH]c(-c3ccc(N)cc3)nc2c1	> 50	36.5	–	–
COc1cc(OC)c2c(=O)[nH]c(-c3ccc(OCC(=O)Nc4ccc(N5CCOCC5)cc4)cc3)nc2c1	9.54	7.67	–	–
COc1cc(-c2nc3ccccc3c(=O)[nH]2)cc(OC)c1O	> 50	> 50	–	–
COc1cccc(-c2cc(=S)c3cc(OC)ccc3o2)c1	> 50	> 50	–	–
CN1CCN(c2ccc(NC(=O)COc3ccc(-c4nc5cc(Cl)ccc5c(=O)[nH]4)cc3)cc2Cl)CC1	15.3	14.4	–	–
COc1cc(OC)c2c(=O)[nH]c(-c3cc(Br)c(OCC(=O)Nc4ccc(N5CCOCC5)cc4)c(Br)c3)nc2c1	15.1	13.2	–	–
COc1cc(OC)c2c(=O)[nH]c(-c3ccc(OCC(=O)Nc4ccc(N5CCOCC5)c(Cl)c4)cc3)nc2c1	8.29	4.52	–	–
COc1cc(OC)c2c(=O)[nH]c(-c3cc(C)c(OCC(=O)Nc4nc5ccccc5[nH]4)c(C)c3)nc2c1	30.3	> 50	–	–
COc1cc(OC)c2c(=O)[nH]c(-c3cc(C)c(OCC(=O)NCC4CCOCC4)c(C)c3)nc2c1	25.6	23.6	–	–
COc1ccc2nc(-c3cc(OC)c(O)c(OC)c3)[nH]c(=O)c2c1	43.3	> 50	–	–
COc1cc(OC)c2c(=O)[nH]c(-c3ccc(OCC(=O)NC4CCN(C(=O)OC(C)(C)C)CC4)cc3)nc2c1	16.6	13.1	–	–
COc1cc(OC)c2c(=O)[nH]c(-c3cc(C)c(OCC(=O)Nc4cccc(N5CCN(C)CC5)c4)c(C)c3)nc2c1	15.7	14.6	–	–
COc1cc(OC)c2c(=O)[nH]c(-c3cc(C)c(O)c(C)c3)nc2c1	19.3	17.5	–	–
COc1cc(OC)c2c(=O)[nH]c(-c3ccc(OCC(=O)O)cc3)nc2c1	18.6	19.7	–	–
COc1cc(OC)c2c(=O)[nH]c(-c3cc(C)c(OCC(=O)Nc4ccc(N5CCN(C)CC5)c(F)c4)c(C)c3)nc2c1	8.33	5.72	–	–
COc1cc(OC)c2c(=O)[nH]c(-c3cc(C)c(OCC(=O)Nc4ccc(N5CCOCC5)c(F)c4)c(C)c3)nc2c1	9.16	10.3	–	–
COc1ccc2nc(-c3ccc(C)cc3)[nH]c(=O)c2c1	30.4	> 50	–	–
O=C(O)c1ccc2c(c1)nc(Nc1cccc(Cl)c1)c1ccncc12 [SILMITASERTIB]	–	–	Active	Toxic
COc1cc(OC)c2c(=O)[nH]c(-c3cc(C)c(OCC(=O)Nc4ccc(N5CCOCC5)cc4)c(C)c3)nc2c1	9.49	8.23	–	–

Compound	IC50 (MDA-MB-468) [µM]	IC50 (MDA-MB-231 [1]) [µM]	Activity (MDA-MB-231 [2])	Activity (Mus musculus)
COc1cc(OC)c2c(=O)[nH]c(-c3ccc(OCC(=O)Nc4cccc(N5CCN(C)CC5)c4)cc3)nc2c1	8.07	13.2	–	–
COc1cc(OC)c2c(=O)[nH]c(-c3ccc(O)c(Br)c3)nc2c1	22.3	23.2	–	–
CN1CCN(c2ccc(NC(=O)COc3ccc(-c4nc5ccc(Cl)cc5c(=O)[nH]4)cc3)cc2Cl)CC1	6.23	5.21	–	–
COc1cc(OC)c2c(=O)[nH]c(-c3cc(Br)c(OCC(=O)Nc4ccc(N5CCOCC5)c(Cl)c4)c(Br)c3)nc2c1	5.53	4.02	–	–
COc1cc(OC)c2c(=S)cc(-c3cc(C)cc(C)c3)oc2c1	> 50	> 50	–	–
COc1cccc(-c2cc(=O)c3cc(OC)ccc3o2)c1 [6,3'-DIMETHOXYFLAVONE]	> 50	> 50	–	–
COc1cc(OC)c2c(=O)[nH]c(-c3ccc(OCC(=O)Nc4ccc(N5CCCC5)cc4)cc3)nc2c1	7.82	19.6	–	–
COc1cc(OC)c2c(=O)[nH]c(-c3cc(C)c(OCC(=O)Nc4ccc(N5CCOCC5)c(Cl)c4)c(C)c3)nc2c1	6.31	10.2	–	–
COc1cc(OC)c2c(=O)[nH]c(-c3ccc(OCC(=O)NCC4CCOCC4)cc3)nc2c1	26.6	21.2	–	–
COc1cc(OC)c2c(=O)[nH]c(-c3cc(C)c(OCC(=O)Nc4cc(OC)c(OC)c(OC)c4)c(C)c3)nc2c1	16.6	24.4	–	–
COc1cc(OC)c2c(=O)[nH]c(-c3ccc(NC(C)=O)cc3)nc2c1	24.7	27.3	–	–
COc1cc(OC)c2c(=O)[nH]c(-c3cc(Br)c(OCC(=O)Nc4ccc(N5CCN(C)CC5)cc4)c(Br)c3)nc2c1	15.8	13.6	–	–
COc1cccc(-c2nc3cc(OC)cc(OC)c3c(=O)[nH]2)c1	29.3	38.3	–	–
COc1ccc2nc(-c3ccc(NC(C)=O)cc3)[nH]c(=O)c2c1	41.2	> 50	–	–
COc1cc(OC)c2c(=O)[nH]c(-c3ccccc3OC)nc2c1	44.6	> 50	–	–
COc1cc(OC)c2c(=O)[nH]c(-c3cc(C)c(OCC(=O)NC4CCN(C(=O)OC(C)(C)C)CC4)c(C)c3)nc2c1	17.2	22.4	–	–
COc1cc(OC)c2c(=O)[nH]c(-c3cccc(C)c3)nc2c1	39.4	43.9	–	–
COc1cc(OC)c2c(=O)[nH]c(-c3cc(Br)c(OCC(=O)Nc4ccc(N5CCCCC5)cc4)c(Br)c3)nc2c1	15.6	16.4	–	–
Cc1ccc2nc(-c3ccc(OCC(=O)Nc4ccc(N5CCN(C)CC5)c(Cl)c4)cc3)[nH]c(=O)c2c1	16.2	17.4	–	–
O=c1cc(-c2ccccc2)oc2ccc(Br)cc12 [6-BROMOFLAVONE]	48.2	33.5	–	–
